Assay results: patent US20230174584A1, “Antibiotic Compounds” (priority 2019, published 2023)
Values after ≈ are worked out from the molar mass of the structure shown.

Key:
Format in all cases: cell-based, Staphylococcus aureus
[1] = test system: MRSA USA300; assay: MIC assay in the presence of sheep serum; settings: MRSA USA300, TSB + 0.002% p80 + 50% sheep serum
Procedure: (§1) The antibacterial activity of the compounds was tested against a panel of bacteria, including Gram-positive bacteria (S. aureus ATCC29213, S. aureus USA300, S. aureus LIM-2, NR-45881, S. aureus HIP13419, NR-46413, E. faecium E155, E. faecium E7314, E. faecium E980, E. faecalis E1246, E. faecalis E7406 and S. pneumonia 153). The antibacterial activity of the compounds was further tested against S. aureus NY-155, NR-46236, S. aureus HIP12864, NR-46074, S. aureus 880 (BR-VRSA), NR-49120, E. faecalis E1246, E. faecalis E7604, as well as some Gram-negative bacteria (Escherichia coli and Klebsiella pneumoniae). Minimum inhibitory concentrations (MICs) in μg/mL were performed according to the CLSI guidelines. From glycerol stocks, bacterial strains were cultured on blood agar plates and incubated at 37° C. for 18 h. A single colony was transferred to tryptic soy broth (TSB) with 0.002% polysorbate 80 (p80). For the Enterococcus, VISA and VRSA strains, the cultures were grown at 37° C. until the optical density of the suspension reached a level equivalent to the 0.5 McFarland standard. The bacterial suspensions were diluted in TSB with 0.002% p80 to reach a bacterial cell density of 10^6 CFU/mL. In case of the other (vancomycin-sensitive) S. aureus strains, the direct colony suspension method was used. For these strains, after transfer of the colonies to TSB with 0.002% p80, they were immediately diluted to 10^6 CFU/mL, instead of incubated prior to this dilution. In the case of S. pneumonia, direct colony suspension was used by immediately suspending multiple colonies from fresh blood agar plates in TSB+0.002% p80 to an OD600 of 0.5 and subsequent dilution to 10^6 CFU mL^−1 in TSB+0.002% p80+5% lysed horse blood. Antibiotic dilutions for this strains were also made in TSB+0.002% p80+5% lysed horse blood. Both agar and microplates containing S. pneumonia were incubated at 37° C. with 5% CO2 for 24 h with constant shaking (600 rpm). […] The cultures were grown to exponential phase (OD600=0.5) at 37° C. […] In polypropylene 96-well microtiter plates, test compounds were added in biological triplicates and serial diluted 2-fold by transfer and mixing from one well to the next to achieve a final volume of 50 μL per well. An equal volume of bacterial suspension (10^6 CFU mL^−1) was added to the wells. The plates were sealed with breathable membranes and incubated at 37° C. for 24 h with constant shaking (600 rpm). In polypropylene microtiter plates, 100 μL of the test compounds was added to the first row in biological triplicates, and 50 μL of media was added to the other wells. The compounds were subjected to serial dilution by transfer and mixing of 50 μL from one well to the next. Subsequently, 50 μL of bacterial suspension (10^6 CFU/mL) was added to the wells. The plates were sealed with breathable membranes and incubated at 37° C. for 24 h with constant shaking (600 rpm). Positive growth control consisted of wells with bacterial suspension and without antibiotic. Negative growth control consisted of solely media without bacterial suspension or antibiotic. The MICs were determined from the median of a minimum of triplicates.
The activity of the compounds was further assessed against MRSA USA300 strain in the presence of sheep) serum in another MIC assay. The cultures that grew in the presence of serum used TSB+0.002% P80+50% sheep serum as growth media, as opposed to normal MICs done in only TSB+0.002% P80.

[2] = test system: NRS63SH; assay: MIC assay, VISA and VRSA panel; settings: strain NRS63SH
Procedure: as §1

[3] = test system: VRS4; assay: MIC assay, VISA and VRSA panel; settings: strain VRS4
Procedure: as §1

[4] = test system: VRS7; assay: MIC assay, VISA and VRSA panel; settings: strain VRS7
Procedure: as §1

[5] = test system: NRS52; assay: MIC assay, VISA and VRSA panel; settings: strain NRS52
Procedure: as §1

[6] = test system: VRS9; assay: MIC assay, VISA and VRSA panel; settings: strain VRS9
Procedure: as §1

[7] = test system: VRS2; assay: MIC assay, VISA and VRSA panel; settings: strain VRS2
Procedure: as §1

[8] = test system: VRS5; assay: MIC assay, VISA and VRSA panel; settings: strain VRS5
Procedure: as §1

[9] = test system: VRS11b; assay: MIC assay, VISA and VRSA panel; settings: strain VRS11b
Procedure: as §1

[10] = test system: NRS19; assay: MIC assay, VISA and VRSA panel; settings: strain NRS19
Procedure: as §1

[11] = test system: VRS1; assay: MIC assay, VISA and VRSA panel; settings: strain VRS1
Procedure: as §1

[12] = test system: NRS17; assay: MIC assay, VISA and VRSA panel; settings: strain NRS17
Procedure: as §1

[13] = test system: VRSA3b; assay: MIC assay, VISA and VRSA panel; settings: strain VRSA3b
Procedure: as §1

[14] = test system: VRS8; assay: MIC assay, VISA and VRSA panel; settings: strain VRS8
Procedure: as §1

[15] = test system: VRS11a; assay: MIC assay, VISA and VRSA panel; settings: strain VRS11a
Procedure: as §1

[16] = test system: VRS3a; assay: MIC assay, VISA and VRSA panel; settings: strain VRS3a
Procedure: as §1

[17] = test system: NRS18; assay: MIC assay, VISA and VRSA panel; settings: strain NRS18
Procedure: as §1

[18] = test system: NRS51; assay: MIC assay, VISA and VRSA panel; settings: strain NRS51
Procedure: as §1

SMILES: CCCCCCCCNC(N)=Nc1ccc(CN[C@@]2(C)C[C@H](O[C@H]3[C@H](Oc4c5cc6cc4Oc4ccc(cc4Cl)[C@@H](O)[C@@H](NC(=O)[C@@H](CC(C)C)NC)C(=O)N[C@@H](CC(N)=O)C(=O)N[C@H]6C(=O)N[C@H]4C(=O)N[C@H](C(=O)N[C@H](C(=O)O)c6cc(O)cc(O)c6-c6cc4ccc6O)[C@H](O)c4ccc(c(Cl)c4)O5)O[C@H](CO)[C@@H](O)[C@@H]3O)O[C@@H](C)[C@H]2O)cc1 [Compound 6]
- MIC [1]: 0.063 µg/mL

SMILES: CCCCCCCNC(N)=Nc1ccc(CN[C@@]2(C)C[C@H](O[C@H]3[C@H](Oc4c5cc6cc4Oc4ccc(cc4Cl)[C@@H](O)[C@@H](NC(=O)[C@@H](CC(C)C)NC)C(=O)N[C@@H](CC(N)=O)C(=O)N[C@H]6C(=O)N[C@H]4C(=O)N[C@H](C(=O)N[C@H](C(=O)O)c6cc(O)cc(O)c6-c6cc4ccc6O)[C@H](O)c4ccc(c(Cl)c4)O5)O[C@H](CO)[C@@H](O)[C@@H]3O)O[C@@H](C)[C@H]2O)cc1 [Compound 5]
- MIC [2]: 8 µg/mL (≈ 4.72 µM)
- MIC [3]: 8 µg/mL (≈ 4.72 µM)
- MIC [4]: 4 µg/mL (≈ 2.36 µM)
- MIC [5]: 0.031 µg/mL (≈ 0.0183 µM)
- MIC [6]: 16 µg/mL (≈ 9.44 µM)
- MIC [7]: 0.25 µg/mL (≈ 0.148 µM)
- MIC [8]: 4 µg/mL (≈ 2.36 µM)
- MIC [9]: 16 µg/mL (≈ 9.44 µM)
- MIC [10]: 0.063 µg/mL (≈ 0.0372 µM)
- MIC [11]: 16 µg/mL (≈ 9.44 µM)
- MIC [12]: 0.25 µg/mL (≈ 0.148 µM)
- MIC [13]: 1 µg/mL (≈ 0.59 µM)
- MIC [14]: 16 µg/mL (≈ 9.44 µM)
- MIC [15]: 16 µg/mL (≈ 9.44 µM)
- MIC [16]: 0.25 µg/mL (≈ 0.148 µM)
- MIC [17]: 0.125 µg/mL (≈ 0.0738 µM)
- MIC [18]: 0.031 µg/mL (≈ 0.0183 µM)
- MIC [1]: 0.031 µg/mL

SMILES: CN[C@H](CC(C)C)C(=O)N[C@H]1C(=O)N[C@@H](CC(N)=O)C(=O)N[C@H]2C(=O)N[C@H]3C(=O)N[C@H](C(=O)N[C@H](C(=O)O)c4cc(O)cc(O)c4-c4cc3ccc4O)[C@H](O)c3ccc(c(Cl)c3)Oc3cc2cc(c3O[C@@H]2O[C@H](CO)[C@@H](O)[C@H](O)[C@H]2O[C@H]2C[C@](C)(NCc3ccc(N=C(N)NC/C=C(\C)CCC=C(C)C)cc3)[C@H](O)[C@H](C)O2)Oc2ccc(cc2Cl)[C@H]1O [Compound 14]
- MIC [1]: 0.063 µg/mL

SMILES: CCCCCCCCCNC(N)=Nc1ccc(CN[C@@]2(C)C[C@H](O[C@H]3[C@H](Oc4c5cc6cc4Oc4ccc(cc4Cl)[C@@H](O)[C@@H](NC(=O)[C@@H](CC(C)C)NC)C(=O)N[C@@H](CC(N)=O)C(=O)N[C@H]6C(=O)N[C@H]4C(=O)N[C@H](C(=O)N[C@H](C(=O)O)c6cc(O)cc(O)c6-c6cc4ccc6O)[C@H](O)c4ccc(c(Cl)c4)O5)O[C@H](CO)[C@@H](O)[C@@H]3O)O[C@@H](C)[C@H]2O)cc1 [Compound 7]
- MIC [1]: 0.063 µg/mL
